Results as given in patent US9034887B2, “Dihydroorotate dehydrogenase as antifungal drug target and quinazolinone-based inhibitors thereof” (F2G Limited, priority 2008, dated 2015).
In brackets after ≈: the same amount, converted by molar mass.

Legend:
[1] = system: Aspergillus fumigatus AF210; assay: MIC in RPMI medium, A. fumigatus 210; assay type: cell-based; conditions: 24-48 hrs at 35° C., >80% growth inhibition, read-out: MIC grade, A. fumigatus 210
Protocol: (§1) Between 1 and 5 mgs of compound were accurately weighed out into a sterile Eppendorf tube. The compound was dissolved in DMSO to give a solution containing 5 mg/mL. Tubes were stored at −20° C. until required.
(§2) On the day of testing thawed solutions were vortex mixed to ensure homogeneity. 30 μL of solution was removed and added to 570 μL of sterile water in a separate sterile Eppendorf. The thoroughly mixed solution was used to prepare a series of doubling dilutions in water, in a deep well plate. Thirteen replicate plates were prepared using a Minitrak by aspirating 20 μL from each well into eleven clear polystyrene 96 well plates.
(§3) Assays were also performed in RPMI medium. To perform MIC tests in this medium, dilutions of compounds are prepared in microtitre plates as described above. Fungal strains to be tested are grown and harvested in an identical manner to that described above, and each organism suspension was diluted in RPMI medium, containing 2% glucose and 0.135 M MOPS buffer (pH 7.0) to 0.5-2×10^4 cfu/mL, rather than in YAG medium. 80 μL of an organism suspension was added to each well of the plate containing drug dilutions.
(§4) All plates were incubated for 24-48 hrs at 35° C. Growth was assessed by monitoring the optical density at 485 nm for each well. […] The following organisms were tested: Aspergillus flavus, Aspergillus fumigatus AF293 and AF210, Aspergillus niger and Aspergillus terreus AT4 and AT49.

Aspergillus niger [2] = assay: MIC in RPMI medium, A. niger; assay type: cell-based; conditions: 24-48 hrs at 35° C., >80% growth inhibition, read-out: MIC grade, A. niger
Protocol: as §1, §2, §3, §4

Aspergillus terreus = assay: MIC in YAG medium, A. terreus; assay type: cell-based; conditions: 24 hrs at 35° C., >70% growth inhibition, read-out: MIC grade, A. terreus
Protocol: as §1, §2
(§5) Spores of Aspergillus spp. (Aspergillus fumigatus [two strains], Aspergillus terreus [two strains], Aspergillus niger and Aspergillus flavus) were harvested from cultures grown on Sabarauds agar for 5 days, and resuspended in PBS/Tween 80 to approx 1×10^7 cfu/mL. Each organism suspension was diluted in YAG medium (1% glucose, 1% ammonium chloride and 0.5% yeast extract) to 0.5-2×10^4 cfu/mL. 80 μL of an organism suspension was added to each well of the plate containing drug dilutions.
(§6) All plates were incubated for 24 hrs at 35° C. Growth was assessed by monitoring the optical density at 485 nm for each well. The MIC of a compound is the lowest drug concentration that inhibits growth of an organism by >70% compared with a drug free control. MICs are recorded as mg/L. In cases where the MIC of an organism is […] the MIC is repeated using a concentration range of 0.5-0.0005 mg/L.

Aspergillus flavus [3] = assay: MIC in RPMI medium, A. flavus; assay type: cell-based; conditions: 24-48 hrs at 35° C., >80% growth inhibition, read-out: MIC grade, A. flavus
Protocol: as §1, §2, §3, §4

[4] = molecular target: T1, Recombinant DHODH from human (Homo sapiens, UniProt Q02127); assay: DHODH inhibition screen (DCIP reduction, 600 nm), human enzyme; assay type: biochemical; conditions: Table 3, read-out: IC50 values for Compound Examples 1 to 15 identified from screens, Human
T1 construct: His-tag; NusA (Nus-tag) fusion of vector pET43.1 (own knowledge of the vector) (N); made in house; host or cells: E. coli BL21 DE3
T1 sequence (Q02127 31-395 limits assumed): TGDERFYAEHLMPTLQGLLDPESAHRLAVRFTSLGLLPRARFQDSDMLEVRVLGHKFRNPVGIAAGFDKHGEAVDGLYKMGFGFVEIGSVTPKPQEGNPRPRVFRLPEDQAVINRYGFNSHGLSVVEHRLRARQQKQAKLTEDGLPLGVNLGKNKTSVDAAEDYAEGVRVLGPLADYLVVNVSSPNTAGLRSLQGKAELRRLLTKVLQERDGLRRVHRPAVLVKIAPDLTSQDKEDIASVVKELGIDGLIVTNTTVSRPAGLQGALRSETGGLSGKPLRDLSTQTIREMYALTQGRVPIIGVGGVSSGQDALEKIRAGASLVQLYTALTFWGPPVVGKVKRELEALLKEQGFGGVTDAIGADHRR
Protocol: (§7) 1. The following buffer and stock solution were prepared:
Coenzyme Q2 (Sigma) was dissolved in DMSO to give a concentration of 10 mg/ml. […] The stock solution was made with 127.36 μl DHO, 127.36 μl DCIP and 318.4 μl Coenzyme Q2, made up to 80 ml with Buffer A. Final concentrations in assay wells were; DHO, 500 μM; Coenzyme Q, 50 μM; DCIP, 100 μM.
2. […] Duplicate sets of plates were used such that one set received enzyme while a control set received no enzyme.
3. […] Then 20 μl of DHODH solution was added to all the +enzyme plates and 20 μl of Buffer A was added to all the control −enzyme plates.
(§8) 4. 20 μl of DHO/Coenzyme Q2/DCIP solution was added to all the wells, after which plates were incubated at room temperature for […] and then read on a Tecan Safire spectrophotometer at 600 nm.
(§9) Recombinant DHODH from human or C. albicans was assayed in the same way. It is necessary to adjust the enzyme concentration and reaction time to take into account variations in activity of enzyme batches, thus the incubation time was 20 minutes for the C. albicans enzyme and 34 minutes for the human enzyme.

[5] = molecular target: Recombinant A. fumigatus DHODH (Aspergillus fumigatus, UniProt Q4X169); assay: DHODH inhibition screen (DCIP reduction, 600 nm), A. fumigatus enzyme; assay type: biochemical
Chain of Recombinant A. fumigatus DHODH (Q4X169 entry or part of it): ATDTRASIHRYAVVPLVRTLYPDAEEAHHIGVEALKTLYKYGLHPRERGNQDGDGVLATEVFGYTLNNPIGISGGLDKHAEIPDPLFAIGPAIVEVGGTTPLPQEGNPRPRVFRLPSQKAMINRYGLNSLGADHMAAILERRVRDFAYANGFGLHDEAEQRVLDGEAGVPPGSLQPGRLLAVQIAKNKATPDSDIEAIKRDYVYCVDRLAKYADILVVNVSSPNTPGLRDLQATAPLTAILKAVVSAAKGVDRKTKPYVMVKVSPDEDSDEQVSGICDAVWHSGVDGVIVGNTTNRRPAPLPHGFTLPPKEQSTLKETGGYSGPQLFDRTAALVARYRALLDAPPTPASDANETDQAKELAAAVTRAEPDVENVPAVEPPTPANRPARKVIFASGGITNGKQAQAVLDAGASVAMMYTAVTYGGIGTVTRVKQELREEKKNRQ
Protocol: as §7
Buffer A: 62.5 mM TrisHCl (pH8.0), 150 mM NaCl, 10% v/v glycerol
DHO/Coenzyme Q2/DCIP solution: 19.848 mg dihydroorotate (DHO; Sigma) was dissolved in 160 μl DMSO. Coenzyme Q2 (Sigma) was dissolved in DMSO to give a concentration of 10 mg/ml. 7.236 mg 2,6-dichloroindophenol (DCIP; Sigma) was dissolved in 160 μl DMSO. The stock solution was made with 127.36 μl DHO, 127.36 μl DCIP and 318.4 μl Coenzyme Q2, made up to 80 ml with Buffer A. Final concentrations in assay wells were; DHO, 500 μM; Coenzyme Q, 50 μM; DCIP, 100 μM.
2. Compounds were aliquotted into 384-well microtitre plates at a range of dilutions to give final concentrations in the assay of […]. Duplicate sets of plates were used such that one set received enzyme while a control set received no enzyme. Since compounds are frequently dissolved in DMSO or a DMSO/water mixture, assays were set up to give a final concentration of 1% (v/v) DMSO in wells.
3. Recombinant A. fumigatus DHODH was suspended in Buffer A to give a concentration of 1435.8 ng protein in 20 μl. Then 20 μl of DHODH solution was added to all the +enzyme plates and 20 μl of Buffer A was added to all the control −enzyme plates.
as §8
as §9, with “enzyme. Compounds are screened against a fungal and human enzyme to identify compounds which are selective for the fungal enzyme.” for “enzyme.”

Aspergillus terreus AT4 = assay: MIC in RPMI medium, A. terreus; assay type: cell-based; conditions: 24-48 hrs at 35° C., >80% growth inhibition, read-out: MIC grade, A. terreus
Protocol: as §1, §2, §3, §4

[6] = system: Aspergillus fumigatus AF293; assay: MIC in RPMI medium, A. fumigatus; assay type: cell-based; conditions: 24-48 hrs at 35° C., >80% growth inhibition, read-out: MIC grade, A. fumigatus
Protocol: as §1, §2, §3, §4

A. fumigatus 210 = assay: MIC in YAG medium, A. fumigatus 210; assay type: cell-based; conditions: Aspergillus fumigatus, 24 hrs at 35° C., >70% growth inhibition, read-out: MIC grade, A. fumigatus 210
Protocol: as §1, §2, §5, §6

Aspergillus flavus [7] = assay: MIC in YAG medium, A. flavus; assay type: cell-based; conditions: 24 hrs at 35° C., >70% growth inhibition, read-out: MIC grade, A. flavus
Protocol: as §1, §2, §5, §6

Aspergillus niger [8] = assay: MIC in YAG medium, A. niger; assay type: cell-based; conditions: 24 hrs at 35° C., >70% growth inhibition, read-out: MIC grade, A. niger
Protocol: as §1, §2, §5, §6

A. terreus 49 = assay: MIC in YAG medium, A. terreus 49; assay type: cell-based; conditions: Aspergillus terreus, 24 hrs at 35° C., >70% growth inhibition, read-out: MIC grade, A. terreus 49
Protocol: as §1, §2, §5, §6

Aspergillus terreus AT49 = assay: MIC in RPMI medium, A. terreus 49; assay type: cell-based; conditions: 24-48 hrs at 35° C., >80% growth inhibition, read-out: MIC grade, A. terreus 49
Protocol: as §1, §2, §3, §4

Aspergillus fumigatus = assay: MIC in YAG medium, A. fumigatus; assay type: cell-based; conditions: 24 hrs at 35° C., >70% growth inhibition, read-out: MIC grade, A. fumigatus
Protocol: as §1, §2, §5, §6

SMILES	MIC [1] [µg/mL]	MIC (Aspergillus niger [2]) [µg/mL]	MIC (Aspergillus terreus) [µg/mL]	MIC (Aspergillus flavus [3]) [µg/mL]	IC50 [4] [µM]	IC50 [5] [µM]	MIC (Aspergillus terreus AT4) [µg/mL]	MIC [6] [µg/mL]	MIC (A. fumigatus 210) [µg/mL]	MIC (Aspergillus flavus [7]) [µg/mL]	MIC (Aspergillus niger [8]) [µg/mL]	MIC (A. terreus 49) [µg/mL]	MIC (Aspergillus terreus AT49) [µg/mL]	MIC (Aspergillus fumigatus) [µg/mL]
COc1ccccc1-n1c(SC(C)C)nc2cccc(OC)c2c1=O [Compound Example 4, 2-Isopropylsulfanyl-5-methoxy-3-(2-methoxy-phenyl)-3H-quinazolin-4-one]	1 to 10 (≈ 2.81 to 28.1 µM)	< 1	< 1	> 10	73	4.95	1 to 10 (≈ 2.81 to 28.1 µM)	< 1	< 1	1 to 10 (≈ 2.81 to 28.1 µM)	< 1	< 1	1 to 10 (≈ 2.81 to 28.1 µM)	< 1
CCSc1nc2cc(C)ccc2c(=O)n1-c1ccccc1OC [Compound Example 5, 2-Ethylsulfanyl-3-(2-methoxy-phenyl)-7-methyl-3H-quinazolin-4-one]	1 to 10 (≈ 3.06 to 30.6 µM)	> 10	< 1	> 10	15.5	5.4	1 to 10 (≈ 3.06 to 30.6 µM)	1 to 10 (≈ 3.06 to 30.6 µM)	< 1	< 1	< 1	< 1	1 to 10 (≈ 3.06 to 30.6 µM)	< 1
COc1ccccc1-n1c(SC(C)C)nc2ccc(N(C)C)cc2c1=O [Compound Example 6, 6-Dimethylamino-2-isopropylsulfanyl-3-(2-methoxy-phenyl)-3H-quinazolin-4-one]	1 to 10 (≈ 2.71 to 27.1 µM)	< 1	1 to 10 (≈ 2.71 to 27.1 µM)	> 10	1.09	10.1	> 10	> 10	1 to 10 (≈ 2.71 to 27.1 µM)	> 10	< 1	1 to 10 (≈ 2.71 to 27.1 µM)	> 10	1 to 10 (≈ 2.71 to 27.1 µM)
COc1ccccc1-n1c(SC(C)C)nc2ccccc2c1=O [Compound Example 7, 2-Isopropylsulfanyl-3-(2-methoxy-phenyl)-3H-quinazolin-4-one]	1 to 10 (≈ 3.06 to 30.6 µM)	< 1	< 1	> 10	50.1	11.6	1 to 10 (≈ 3.06 to 30.6 µM)	1 to 10 (≈ 3.06 to 30.6 µM)	< 1	> 10	< 1	1 to 10 (≈ 3.06 to 30.6 µM)	1 to 10 (≈ 3.06 to 30.6 µM)	< 1
CC(C)Sc1nc2ccccc2c(=O)n1-c1ccccc1C(C)C [Compound Example 8, 3-(2-Isopropyl-phenyl)-2-isopropylsulfanyl-3H-quinazolin-4-one]	1 to 10 (≈ 2.95 to 29.5 µM)	< 1	< 1	> 10	131	12.2	> 10	< 1	< 1	> 10	< 1	< 1	1 to 10 (≈ 2.95 to 29.5 µM)	< 1
CCc1ccccc1-n1c(SC(C)C)nc2ccccc2c1=O [Compound Example 9, 3-(2-Ethyl-phenyl)-2-isopropylsulfanyl-3H-quinazolin-4-one]	> 10	< 1	1 to 10 (≈ 3.08 to 30.8 µM)	> 10	123	17.7	> 10	< 1	< 1	> 10	< 1	< 1	> 10	< 1
COc1ccc2nc(SC(C)C)n(-c3ccccc3OC)c(=O)c2c1 [Compound Example 10, 2-Isopropylsulfanyl-6-methoxy-3-(2-methoxy-phenyl)-3H-quinazolin-4-one]	> 10	1 to 10 (≈ 2.81 to 28.1 µM)	1 to 10 (≈ 2.81 to 28.1 µM)	> 10	50.2	19.6	> 10	> 10	1 to 10 (≈ 2.81 to 28.1 µM)	> 10	< 1	< 1	> 10	1 to 10 (≈ 2.81 to 28.1 µM)
CC(C)Sc1nc2ccccc2c(=O)n1-c1ccccc1N(C)C [Compound Example 11, 3-(2-Dimethylamino-phenyl)-2-isopropylsulfanyl-3H-quinazolin-4-one]	> 10	1 to 10 (≈ 2.95 to 29.5 µM)	1 to 10 (≈ 2.95 to 29.5 µM)	> 10	118	21.2	> 10	1 to 10 (≈ 2.95 to 29.5 µM)	1 to 10 (≈ 2.95 to 29.5 µM)	> 10	1 to 10 (≈ 2.95 to 29.5 µM)	1 to 10 (≈ 2.95 to 29.5 µM)	> 10	1 to 10 (≈ 2.95 to 29.5 µM)
CCSc1nc2cccc(OC)c2c(=O)n1-c1ccccc1OC [Compound Example 12, 2-Ethylsulfanyl-5-methoxy-3-(2-methoxy-phenyl)-3H-quinazolin-4-one]	1 to 10 (≈ 2.92 to 29.2 µM)	< 1	1 to 10 (≈ 2.92 to 29.2 µM)	> 10	117	26.9	1 to 10 (≈ 2.92 to 29.2 µM)	1 to 10 (≈ 2.92 to 29.2 µM)	< 1	1 to 10 (≈ 2.92 to 29.2 µM)	< 1	< 1	1 to 10 (≈ 2.92 to 29.2 µM)	< 1
